Legend:
PBMC [1] = assay: Inhibition of LPS-induced TNF-alpha production in rat PBMC
PBMC [2] = assay: Inhibition of LPS-induced TNF-alpha production in human PBMC; assay type: functional, cell-based

SMILES | IC50 (PBMC [1]) [µM] | IC50 (PBMC [2]) [µM]
O/N=C1\CCC(C2CCCCC2)=C1c1ccc(F)c(F)c1 | 0.34 | –
O/N=C1\CCC(C2CCCC2)=C1c1ccc(F)cc1 | 0.46 | –
O/N=C1\CCC(C2CCCC2)=C1c1ccc(F)c(F)c1 | 0.13 | 0.26
O/N=C1\CCC(C2CCCC2)=C1c1ccc2c(c1)OCO2 | 0.35 | –
O/N=C1\CCC(C2CCCC2)=C1c1cccc(O)c1 | 6.22 | –
O/N=C1\CCC(C2CCCC2)=C1c1cccc(C(F)(F)F)c1 | 3.07 | –
O/N=C1\CCC(C2CCCCC2)=C1c1ccc(F)cc1 | 1.24 | –
O/N=C1\CCC(C2CCCCC2)=C1c1ccc(F)c(Cl)c1 | 0.42 | –
CCCCCC1=C(c2ccc(F)cc2)/C(=N/O)CC1 | 3.83 | 4.59
CCCCCC1=C(c2ccc(F)c(F)c2)/C(=N/O)CC1 | 3.65 | –
CCCCCC1=C(c2cccnc2)/C(=N/O)CC1 | 14.1 | –
CCCCC1=C(c2ccc(F)cc2)/C(=N/O)CC1 | 7.88 | –
CCCCC1=C(c2ccc3c(c2)OCO3)/C(=N/O)CC1 | 2.52 | 2.92
CCCC1=C(c2ccc(F)cc2)/C(=N/O)CC1 | 2.66 | –
CCCC1=C(c2ccc(F)c(F)c2)/C(=N/O)CC1 | 0.72 | –
CCC1=C(c2ccc(F)c(F)c2)/C(=N/O)CC1 | 4.56 | –
CC1=C(c2ccc(F)c(F)c2)/C(=N/O)CC1 | 48.7 | –
COc1ccc(C2CNC(=O)C2)cc1OC1CCCC1 (configuration not stated) [ROLIPRAM] | 0.27 | 0.27

Source: ChEMBL document CHEMBL3286197, “Synthesis and structure-activity relationship of cyclopentenone oximes as novel inhibitors of the production of tumor necrosis factor-α” (Bioorg Med Chem Lett, 2014)
